Like-named read-outs stand apart in the source and are kept apart here. No end group written: not given here.

The subject of experiment [1] is HeLa cells. Nature of the experiment: Cisplatin-induced DNA double-strand breaks (gH2Ax positive cells) by flow cytometry. Format: cell-based. Conditions: with cisplatin, dose-dependent, FIG. 7. On the technique in general: Flow cytometry measures light scatter and fluorescence of single cells or particles in a stream.
For experiment [2], the system named is DNA polymerase present in a CHO lysate. Nature of the experiment: In vitro translesion DNA synthesis past a cisplatin adduct. The class given is biochemical. Conditions: FIG. 8. The source says: In a further experiment, an in vitro […] DNA polymerization assay was used (e.g. see Hoffman, et al., Proc Natl Acad Sci USA (1996) 93(24), 13766-9). The assay measures the ability of DNA polymerase present in a CHO lysate to catalyze synthesis of a DNA strand past a cisplatin adduct in an oligonucleotide template. The data in FIG. 8 outline the assay approach in the upper panel, and the gel electrophoresis data are shown in the lower panel. […] The negative control lanes (right side of gel image showing the levels of DMSO contributed by the compound) show not effect on DNA synthesis.

For experiment [3], the system named is HeLa cells. As to the kind of experiment: CellTiter-Glo cell viability assay with cisplatin. The class given is cell-based. Conditions: increasing concentration of compound, 24 or 48 hours, FIG. 9. The procedure: Cell viability was determined using CellTiter-Glo® Luminescent Cell Viability Assay (Promega Corporation, Madison, Wis.). Cell viability assays were carried out in 384-well plates after cells were treated for 24 or 48 hours with the disclosed compounds.
(In general: In ATP-based viability assays light output follows the ATP content of the culture.)

The target of experiment [4] is T1, human PCNA recombinant protein (Homo sapiens, UniProt P12004).
T1 construct: The full length human PCNA; made in house; host or cells: Escherichia coli BL21(DE3)
T1 sequence (P12004 whole entry): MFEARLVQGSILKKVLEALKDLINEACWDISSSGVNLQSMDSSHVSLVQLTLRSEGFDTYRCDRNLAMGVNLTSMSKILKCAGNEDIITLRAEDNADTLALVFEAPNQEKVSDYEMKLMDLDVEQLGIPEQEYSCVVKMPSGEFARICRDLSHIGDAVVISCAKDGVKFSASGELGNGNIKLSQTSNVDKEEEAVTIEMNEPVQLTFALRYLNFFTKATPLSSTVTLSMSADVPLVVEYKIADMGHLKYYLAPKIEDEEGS
As to the kind of experiment: Fluorescent polarization assay: competition with 5-FAM-labeled PL peptide for PCNA. Format: binding. The text has this:
To determine the binding of the disclosed compounds to the human PCNA recombinant protein, a fluorescence polarization assay was employed. The assay is based on competition between a fluorescent tracer and increasing amounts of competing compound, i.e. a disclosed compound, determined as fluorescence polarization intensity (mP). The fluorescent tracer was 5-carboxyfluorescein (5-FAM) labeled PL peptide (“FAM-PL”). […] PCNA was a recombinant protein purified using standard methods known to one skilled in the art using an expression construct obtained from Dr. Toshiki Tsurimoto, Kyusyu University, Japan.
The volumes of PCNA and FAM-PL were adjusted to ensure that the final concentration of PCNA was 200 nM and FAM-PL was 10 nM. Assays were carried out in 384 well plates in a total volume of about 20-30 μL. […] Fluorescence measurements were made immediately after dilution in the assay plate. […] FP values (P) were calculated in millipolarization units (mP),
where I∥ and I⊥ are the emission intensities recorded, respectively, in the parallel and perpendicular directions relative to the plane of excitation polarization, after background intensity correction. G-factor values (G) for the fluorescein spectral window were measured using 1 nM fluorescein.
Alternatively, the fluorescent polarization assay can be carried out as described in the following. […] Briefly, 20 μl of the assay solution was transferred into each well of a black 384-well plate using Wellmate (Matrix). […] The negative control in each plate was DMSO, whereas the positive control was unlabeled PL-peptide as a self-competitor. […] FP values were calculated in millipolarization units. All data processing was performed using in-house programs in the Pipeline Pilot (Accelrys, version 7.0.1). The quality of the primary screen was assessed by Z-prime and other screening quality metrics.

Experiment [5] concerns the target PCNA/full-length p21 interaction (Homo sapiens, UniProt P12004). Nature of the experiment: Pull-down competition assay: PCNA captured by immobilized full-length p21-His6. The settings on record: FIG. 5, gel electrophoresis.
Description: A H is protein interaction pull-down kit (Thermo Scientific) was used, in which a 4:1 mixture of TBS and lysis buffer provided in the kit was used as the buffer throughout. For immobilizing p21, 100 μg of p21His6 was incubated overnight at 4° C. with 25 μl (50% suspension) of prewashed cobalt chelate resin in 500 μl of the buffer and washed with the buffer four times. […] After the mixture was incubated overnight at 4° C., the resin was washed with buffer four times, and the bound proteins were eluted with 100 μl of the buffer containing 400 mM imidazole. Each 10 μl of the eluted samples was analyzed by SDS-PAGE with Oriole fluorescent gel stain (BioRad) and a Fluor Chem imager (Alpha Innotech).
For experiment [6], the system named is U2OS cells. As to the kind of experiment: Growth of cells after treatment with cisplatin and T2AA and release (Alamar Blue). Conditions: cisplatin alone up to 10 μM, FIG. 28B. (The colour change of resazurin is a common sign of viable cells or microbes.)
Description: The cells were treated with drugs as indicated in a black (transparent flat bottom) 384-well or 96-well plate. Cellular viability was determined by using Alamar Blue reagent (Invitrogen) on an EnVision plate reader according to the manufacturer's recommendations and normalized with signal from wells of DMSO treatment=100% and of no cells=0%.
Viability of the cells was measured by Alamar Blue reagent, and signals were normalized with those of no cell well (0%) and cells with no drugs (100%). NT, no treatment. Error bars, S.D.
The test system of experiment [7] is U2OS cells. Nature of the experiment: U2OS cell viability with cisplatin and test compound (AlamarBlue, 4 days). Format: cell-based. The settings on record: cisplatin alone up to 10 μM, FIG. 21. The procedure:
U2OS cells were cultured in DMEM in a 384-well plate (3000 cells/20 μL per well), treated with indicated dilution of cisplatin (see FIG. 21) and each indicated test compound (15 μM; 20 μL per well in DMEM), and cultured for 4-days. AlamarBlue reagent (Invitrogen, 4 μL per well) was added and signals were read per manufacturer's recommendation. Signals of wells contains no cells and cells with no drugs served as 0% and 100% viability, respectively.

Experiment [8] concerns U2OS cells. Nature of the experiment: γH2AX staining by flow cytometry, T2AA and cisplatin. Conditions: single agent, 18 h, FIG. 28A.
Description: For γH2AX staining, cells were cultured at 4×10^5 cells/well of 12-well plates in 1 ml of medium, treated with drugs as indicated, trypsin-lifted and stained by using the FlowCellect H2A.X DNA Damage kit (FCCH025142, Millipore) according to the manufacturer's recommendations. All samples were filtered through 40-μm nylon mesh prior to running flow cytometry.
NT, no treatment. Error bars, S.D.
Setting [9] is: Table 2, inhibition of FAM-PL peptide binding to PCNA, read-out: IC50.

Sequence of PCNA/full-length p21 interaction (P12004 whole entry): as above

In the case of `N[C@H](CO)Cc1cc(I)c(Oc2ccc(O)cc2)c(I)c1` [(S)-T2AA, (S)-4-(4-(2-amino-3-hydroxypropyl)-2,6-diiodophenoxy)phenol], the “cisplatin-induced DNA double-strand breaks (gH2Ax positive cells)” value in experiment [1] is given as “at least a doubling”. The “DNA synthesis past the cisplatin adduct (TLS product)” value in experiment [2] is “inhibits”. Further, the “cell viability for a given concentration of cisplatin” value in experiment [3] is “greater loss of cell viability”.
What is called IC50 is the point on the concentration scale where inhibition reaches its midpoint. With `CS(=O)(=O)NC(=O)CCc1cc(I)c(Oc2ccc(O)cc2)c(I)c1` [MLAE-038, 3-(4-(4-hydroxyphenoxy)-3,5-diiodophenyl)-N-(methylsulfonyl)propanamide], the IC50 in experiment [4] (setting [9]) turned out to be 20000 nM. The “level of PCNA captured by His6 p21” value in experiment [5] is listed as “decreased significantly”.
For the compound `NCCc1cc(I)c(Oc2ccc(O)cc2)c(I)c1` [MLAG-087, 4-(4-(2-aminoethyl)-2,6-diiodophenoxy)phenol], the IC50 in experiment [4] turned out to be 900 nM.
`NC(=O)Cc1cc(I)c(Oc2ccc(O)c(I)c2)c(I)c1` [MLAG-088, 2-(4-(4-Hydroxy-3-Iodophenoxy)-3,5-diiodophenyl)acetamide]: the IC50 in experiment [4] (setting [9]) came out at 6600 nM.
The same measure, in the same setting: to `Cc1cc(Oc2c(I)cc(C[C@H](N)CO)cc2I)ccc1O` [MLAG-093, (S)-4-(4-(2-amino-3-hydroxypropyl)-2,6-diiodophenoxy)-2-methylphenol] belongs 1800 nM.
Same read-out and setting: to `Cc1cc(CCC(=O)O)cc(C)c1Oc1ccc(O)cc1` [NF021111, 3-(4-(4-hydroxyphenoxy)-3,5-dimethylphenyl)propanoic acid] belongs more than 50000 nM.
Turning to `NC[C@@H](N)Cc1cc(I)c(Oc2ccc(O)cc2)c(I)c1` [SWUA_017, (S)-4-(4-(2,3-diaminopropyl)-2,6-diiodophenoxy)phenol], in experiment [4] (setting [9]), the IC50 was determined as 2500 nM.
For `Oc1ccc(Oc2c(I)cc(C[C@H]3C[NH2+][Pt-2]([Cl])([Cl])[NH2+]3)cc2I)cc1` [SWUA_018, Dichloro((S)-4-(4-(2,3-diaminopropyl)-2,6-diiodophenoxy)phenol)platinum(II)], the IC50 in experiment [4] (setting [9]) was found to be 270 nM.
Consider `N.N.[Cl][Pt][Cl]` [cisplatin, reference compound], for which the U2OS cell growth result in experiment [6] and in experiment [7] was “not significantly affected” throughout. The “γH2AX level (DNA damage response)” value in experiment [8] is on record as “significantly induced γH2AX”.
As to `Oc1ccc(Oc2c(I)cc(C[C@H]3C[NH2+][Pt-2]([Cl])([Cl])[NH2+]3)cc2I)cc1` [dichloro((S)-4-(4-(2,3-diaminopropyl)-2,6-diiodophenoxy)phenol)platinum(II)], the IC50 in experiment [4] (incubation time 5 min (FIGS. 15-18), read-out: IC50 in fluorescent polarization assay) was approximately 270 nM.
“SAVLQKKITDYFHPKK [PL peptide, reference compound]”: in experiment [4] (unlabeled PL-peptide against tagged PL-peptide, data not shown, read-out: IC50 in self-competition), the IC50 was approximately 100 nM.
